{
  "source": "paper PMC7679387",
  "about": "“VZHE-039, a novel antisickling agent that prevents erythrocyte sickling under both hypoxic and anoxic conditions” (Scientific Reports, 2020)",
  "key": {"[1]": {"assay": "Caco-2 bi-directional permeability", "type": "in vitro ADME, human", "details": "human, Caco-2, pH 7.4; read-out: Efflux ratio (Re)", "protocol": "(§1) Toxicity concerns remain an important issue in the use of aromatic aldehydes in treating a chronic disease, such as SCD, especially as it involves modification of a large amount of in vivo present Hb. […] We evaluated key metrics such as in vitro RBC partitioning and ADME/safety profiles, in order to glean important safety insights. […] We also assessed VZHE-039 at 10 μM for its bi-directional cell permeability using Caco-2 cell monolayers[53],[54].\n(§2) Human epithelial colorectal adenocarcinoma (Caco-2) cells (HTB-37) were cultured in T75 flasks using complete Dulbecco’s Modified Eagles Medium (DMEM) containing 10% fetal bovine serum (FBS), 1% glutamine, 1% penicillin and 1% streptomycin, at 37 °C in a 5% CO2 atmosphere. Cells were passaged at 80–90% confluency using 0.05% trypsin–EDTA and the medium was changed every other day. Following this, the cells were trypsinized, suspended in medium and applied to a Millipore 96-well plate where they were cultured as monolayers at a density of 25,000 cells/well. The cells were incubated in a 37 °C/5% CO2 incubator to allow cell attachment and proliferation. Media was changed every 2–3 days for 21 days when cells reached 100% confluency. For Apical → Basolateral (A → B) permeability, 10 μM VZHE-039 was added to the apical (A) side and the amount of permeation determined on the basolateral (B) side; for Basolateral → Apical (B → A) permeability, 10 μM VZHE-039 was added to the B-side and the amount of permeation was determined on the A side. The A-side buffer contained 100 μM lucifer yellow dye, in Transport Buffer (1.98 g/L glucose in 10 mM HEPES, 1 × Hank’s Balanced Salt Solution) pH 7.4, and the B-side buffer used was the Transport Buffer at pH 7.4. Caco-2 cells were incubated with 10 μM VZHE0-39 in these buffers for 2 h. Ranitidine (low permeability), Warfarin (high permeability) and Talinolol (P-gp efflux control) were used as controls. […] Following centrifugation, the supernatant for donor and receiver side samples was analyzed by LC–MS/MS to determine peak area ratios.\n(§3) The efflux ratio (Re) was calculated as: Re=PappB→A/PappA→B"}, "[2]": {"test_system": "Caco-2 cell monolayers", "assay": "Caco-2 bi-directional permeability", "type": "in vitro ADME, human", "details": "Caco-2 monolayers", "protocol": "as §1, §2, §3"}},
  "data": [
    {"smiles": "O=Cc1c(O)cccc1OCc1cccc(CO)n1", "note": "[VZHE-039, 2-((6-(Hydroxymethyl)pyridin-2-yl)methoxy)-6-hydroxybenzaldehyde]", "values": [
      {"measurement": "efflux ratio at 2 h, 10 µM", "setting": "[1]", "result": 0.85},
      {"measurement": "Permeability (in words)", "setting": "[2]; 10 μM", "result": "high in vitro GI permeability"},
      {"measurement": "Efflux transporter (P-gp) substrate (in words)", "setting": "[2]", "result": "not an efflux transporter (P-gp) substrate"}
    ]}
  ]
}
